The source made the active and inactive calls.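 Rule for the calls: active = a fitted half-maximal concentration EC50 for the rise in nuclear signal no higher than ten times the top dose tested; inconclusive = flat fit with activity between 30% and 70%, or unusable fit; inactive = EC50 beyond ten times the top dose.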
What follows are compounds tested against Hypoxia-inducible factor 1-alpha (Homo sapiens) (UniProt Q16665) (assay: HIF pathway activation, GFP-HIF1alpha translocation – imaging, fluorescence, U2OS GFP-HIF1alpha, confirmation (AID 434951)). Conditions: U2OS GFP-HIF1alpha nuclear intensity, high-content imaging.
Chain of Hypoxia-inducible factor 1-alpha (Homo sapiens) (Q16665 whole entry, looked up): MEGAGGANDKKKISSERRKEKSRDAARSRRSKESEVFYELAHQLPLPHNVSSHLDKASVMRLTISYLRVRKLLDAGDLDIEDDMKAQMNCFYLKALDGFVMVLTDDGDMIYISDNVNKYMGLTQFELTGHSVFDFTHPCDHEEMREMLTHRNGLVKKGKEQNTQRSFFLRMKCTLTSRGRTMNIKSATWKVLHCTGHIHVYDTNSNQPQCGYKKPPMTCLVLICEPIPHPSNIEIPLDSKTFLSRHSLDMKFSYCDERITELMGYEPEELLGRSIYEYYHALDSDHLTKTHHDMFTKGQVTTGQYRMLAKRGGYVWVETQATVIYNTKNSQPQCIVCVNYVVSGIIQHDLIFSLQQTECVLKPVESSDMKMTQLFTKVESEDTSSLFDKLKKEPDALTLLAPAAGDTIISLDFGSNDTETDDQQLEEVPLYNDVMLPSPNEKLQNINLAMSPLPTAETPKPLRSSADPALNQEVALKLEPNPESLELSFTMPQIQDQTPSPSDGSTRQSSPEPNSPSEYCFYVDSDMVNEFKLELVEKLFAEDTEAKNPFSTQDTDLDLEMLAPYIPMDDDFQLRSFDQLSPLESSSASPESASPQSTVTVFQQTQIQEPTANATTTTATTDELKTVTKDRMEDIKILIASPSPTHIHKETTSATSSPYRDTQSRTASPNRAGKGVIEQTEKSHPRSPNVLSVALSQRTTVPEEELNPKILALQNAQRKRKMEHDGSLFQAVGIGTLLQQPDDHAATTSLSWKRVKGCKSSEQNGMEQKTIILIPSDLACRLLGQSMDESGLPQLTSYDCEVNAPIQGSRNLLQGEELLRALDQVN

Row | SMILES | EC50
1 | CCOc1cccc(-c2c(C(=O)N/N=C/c3ccc(Br)cc3)nnn2-c2nonc2N)c1 | > 35 µM (inactive)
2 | N#C/C(=C(/O)c1ccc(F)cc1)c1nc2ccccc2s1 | > 35 µM (inactive)
3 | CCN(CC)S(=O)(=O)c1ccc(N/N=C/c2cc(OC)ccc2O)nc1 | 4.31 µM
4 | COc1ccc(N2CCN(C(=O)C3COc4ccccc4O3)CC2)cc1 (centres undefined) | > 35 µM (inactive)
5 | Cc1ccc(S(=O)(=O)Nc2cc(-c3ccc(Cl)cc3)nn2C)cc1 | > 35 µM (inactive)
6 | CC1CCN(S(=O)(=O)c2ccc3c4c2CC(=O)N4CC(C)S3)CC1 (centres undefined) | > 35 µM (inactive)
7 | COc1ccc(/C=C/C(=O)NCCSCc2ccco2)cc1OC | > 35 µM (inactive)
8 | COc1ccc(NC(=O)CSc2nc3c(c(=O)[nH]2)CCC3)cc1OC | > 35 µM (inactive)
9 | Nc1nc(SCC(=O)N2CCCC2)[nH]c(=O)c1-c1ccccc1 | > 35 µM (inactive)
10 | O=C(COc1cccc2ccccc12)Nc1ccc(Cl)cc1C(=O)O | > 35 µM (inactive)
11 | O=C(C1=C[C@@H](C2CC2)C[C@@H](OCCCCO)O1)N1CCN(Cc2ccc3c(c2)OCO3)CC1 | > 35 µM (inactive)
12 | O=C1CCCC2=C1C(Cc1ccccc1)C1=C(CCCC1=O)O2 | > 35 µM (inactive)
13 | CCc1ccc(C2C(=O)c3ccccc3C2=O)cc1 | > 35 µM (inactive)
14 | O=[N+]([O-])c1ccc(N/N=C/c2ccccc2O)cc1 | > 35 µM (inactive)
15 | Cc1cccc(NC(=O)Cc2noc3ccccc23)c1 | > 35 µM (inactive)
16 | O=C(Nc1nc2ccc([N+](=O)[O-])cc2s1)c1c(F)cccc1F | > 35 µM (inactive)
17 | COC(=O)c1ccc(-n2cncn2)c([N+](=O)[O-])c1 | > 35 µM (inactive)
18 | O=C(N/N=C\c1c(O)ccc2ccccc12)c1ccc(Cn2cccn2)o1 | 5.3 µM
19 | Oc1ccccc1N=Nc1ccccc1O | 2.01 µM
20 | CCC(C)NCCOc1ccc(C)cc1[N+](=O)[O-] (centres undefined) | > 35 µM (inactive)
21 | CC(C)COc1cccc(C(=O)NNC(=O)C2COc3ccccc3O2)c1 (centres undefined) | > 35 µM (inactive)
22 | CCOC(=O)c1c(S(=O)(=O)NCc2ccc(C)o2)c(C)n(C)c1C | > 35 µM (inactive)
23 | OCCNc1c2ccccc2nc2ccccc12 | 32.4 µM
24 | CN(Cc1cccs1)C(=O)CSc1nc(N)cc(N)n1 | > 35 µM (inactive)
25 | COc1cccc(C2C3=C(N=c4s/c(=C\c5ccccc5O)c(=O)n42)c2ccccc2CC3)c1OC (centres undefined) | > 35 µM (inactive)
26 | CCCN(CCC)C(C)C(=O)NCC1(c2ccccc2)CCCC1 (centres undefined) | > 35 µM (inactive)

Row | SMILES | EC50
27 | C=CCN1C(=O)c2ccccc2Sc2ccc(C(=O)N3CCN(C)CC3)cc21 | > 35 µM (inactive)
28 | COC(=O)Nc1nnc(Cc2ccc(OC)cc2)s1 | > 35 µM (inactive)
29 | CCCCCCC1CCC(c2nc(-c3ccncc3)no2)CC1 (centres undefined) | > 35 µM (inactive)
30 | Oc1c(CN2CCN(c3ccccc3)CC2)cc(Br)c2cccnc12 | 5.65 µM
31 | O=C(c1cc2ccccc2o1)N1CCN(Cc2ccc3c(c2)OCO3)CC1 | > 35 µM (inactive)
32 | CCCCc1nnc(NC(=O)c2ccc3[nH]c(=O)c(=O)[nH]c3c2)s1 | > 35 µM (inactive)
33 | CC(C)c1onc(C(=O)Nc2sc3c(c2C#N)CCC3)c1[N+](=O)[O-] | > 35 µM (inactive)
34 | CCC(Cc1ccccc1)n1c(=S)[nH]c2ccccc2c1=O (centres undefined) | > 35 µM (inactive)
35 | O=C(O)c1ccc2cccc(O)c2n1 | > 35 µM (inactive)
36 | FC(F)(F)c1ccc2c(c1)NP(=S)(N1CCOCC1)c1nccn1-2 (centres undefined) | > 35 µM (inactive)
37 | CCN(C(=O)CSc1ncn[nH]1)C1CCCCC1 | > 35 µM (inactive)
38 | CC(OC(=O)c1ncc(Cl)c(Cl)c1Cl)C(=O)NC1(C#N)CCCCC1 (centres undefined) | 17.4 µM
39 | COc1ccc(S(=O)(=O)N2CCC(c3cc(-c4cccc5ccccc45)n[nH]3)CC2)cc1 | > 35 µM (inactive)
40 | Cc1cc(NC(=O)CCCS(=O)(=O)c2nc(-c3cccs3)cc(C(F)(F)F)n2)no1 | > 35 µM (inactive)
41 | COc1cc2ncnc(NCc3cccs3)c2cc1OC | > 35 µM (inactive)
42 | CN(Cc1cccnc1)C(=O)c1cc(COc2ccc3ncccc3c2)on1 | > 35 µM (inactive)
43 | COc1cccc(/C=N\NC(=O)Cn2nnc3ccccc32)c1O | > 35 µM (inactive)
44 | COc1ccc(/C=C(\C#N)c2nc3ccccc3[nH]2)cc1O | > 35 µM (inactive)
45 | C=C(C)CNC(=O)c1ccc2nc(Cc3ccc(OC)cc3)oc2c1 | > 35 µM (inactive)
46 | O=C(CSc1nc2ccccc2c(=O)[nH]1)Nc1ccc(Br)cc1 | > 35 µM (inactive)
47 | CCOc1ccc(C(=O)NCC2CCCO2)cc1OCC (centres undefined) | > 35 µM (inactive)
48 | CC(=O)N1c2ccc(S(=O)(=O)NCCc3ccccc3)cc2CC1C (centres undefined) | > 35 µM (inactive)
49 | Cc1ccc(Nc2c(-c3ccccn3)nc3cc(C)ccn23)cc1 | 5.51 µM
50 | CCCCC(=O)NC(c1ccccc1Cl)c1ccc2cccnc2c1O (centres undefined) | 3.16 µM
51 | CCOc1ccc(CCNC(=O)COC(=O)Cn2nc(C)c([N+](=O)[O-])c2C)cc1OCC | > 35 µM (inactive)
52 | Cc1onc(-c2ccccc2)c1NC(=O)N(Cc1ccccc1)C(C)C | > 35 µM (inactive)

Row | SMILES | EC50
53 | COc1ccc(NC(=O)c2cccs2)cn1 | > 35 µM (inactive)
54 | Oc1ccc(/C=N/Nc2ccc(C(F)(F)F)cn2)c(O)c1 | 29.8 µM
55 | CCCCCCN1C=CC=C/C1=C/C=C(C#N)C#N | > 35 µM (inactive)
56 | Cc1ccc(/C=C(\C#N)c2nn(-c3ccccc3)c(N)c2C#N)cc1 | > 35 µM (inactive)
57 | CC(C)c1nc(CNC(=O)CCc2nnc(-c3ccsc3)o2)cs1 | > 35 µM (inactive)
58 | O=C1N/C(=C/c2cccs2)C(=O)N1Cc1ccc(Br)cc1 | > 35 µM (inactive)
59 | c1ccc(OCc2nc(-c3ccncc3)no2)cc1 | > 35 µM (inactive)
60 | COC(=O)/C(C#N)=C/c1c(N2CCN(Cc3ccc4c(c3)OCO4)CC2)nc2c(C)cccn2c1=O | > 35 µM (inactive)
61 | Cc1ccc(C2(O)CN(c3ccccc3C)C3=[N+]2CCS3)cc1 (centres undefined) | > 35 µM (inactive)
62 | O=C(NCC1CCCO1)c1cc(-c2ccccc2F)no1 (centres undefined) | 21.7 µM
63 | COc1ccc(OC)c(NC2=NCCCS2)c1 | > 35 µM (inactive)
64 | Cc1ccc(C(=O)CSc2cc(C)[nH]c(=O)n2)cc1 | > 35 µM (inactive)
65 | CN(Cc1cccc(C(F)(F)F)c1)C(=O)C1CCC(=O)N(CC2CCCCC2)C1 (centres undefined) | > 35 µM (inactive)
66 | O=C1NC(=O)/C(=C/c2ccc(OS(=O)(=O)c3ccc(F)cc3F)cc2)N1 | > 35 µM (inactive)
67 | O=[N+]([O-])c1cccnc1N/N=C/c1ccccc1O | 34.5 µM
68 | CCCc1[nH]nc2c1C(c1ccoc1)C(C#N)=C(N)O2 (centres undefined) | > 35 µM (inactive)
69 | CCCn1c(=NC(=O)c2c(-c3c(F)cccc3Cl)noc2C)c(C(=O)OCC)cc2c(=O)n3ccccc3nc21 | 22.2 µM
70 | O=C(c1cccnc1)c1cc2ccccc2[nH]1 | > 35 µM (inactive)
71 | Cc1ccc(C2(C)NC(=O)N(CC(=O)NC(=O)NC(C)(C)C)C2=O)cc1 (centres undefined) | > 35 µM (inactive)
72 | CCN(CC)CCOC(=O)C(Cc1ccco1)Cc1cccc2ccccc12 (centres undefined) | > 35 µM (inactive)
73 | CCCCC(=O)Nc1ccc(NC(=O)CC)cc1OC | > 35 µM (inactive)
74 | CC(C)=CCSc1nnc([C@@H](N)Cc2c[nH]c3ccccc23)o1 | > 35 µM (inactive)
75 | CCCC(=O)NC(c1ccc(Cl)cc1Cl)c1ccc2cccnc2c1O (centres undefined) | 2.35 µM
76 | COc1ccc(CCNC(=O)c2nnn(CC(=O)Nc3c(C)cc(C)cc3C)c2N)cc1OC | > 35 µM (inactive)
77 | CCCC(C)NC(=O)CN1C(=O)NC2(CCc3ccccc32)C1=O (centres undefined) | > 35 µM (inactive)
78 | CC(C)Cn1c(/C=N/Nc2nc3ccccc3[nH]2)nc2ccccc21 | 9.05 µM

Row | SMILES | EC50
79 | CCOc1nc(NCCN2CCOCC2)nc(Nc2ccc(C)cc2)n1 | > 35 µM (inactive)
80 | CC(Oc1ccc2c3c(c(=O)oc2c1)CCCC3)C(=O)NCC(O)c1ccccc1 (centres undefined) | > 35 µM (inactive)
81 | CC(C)C(=O)N1CCN(c2nc3ccc(Cl)cc3s2)CC1 | > 35 µM (inactive)
82 | CNNC(=O)C(C)NC(=O)c1ccc(Br)cc1 (centres undefined) | > 35 µM (inactive)
83 | COc1ccc2oc(C(=O)OCC(=O)Nc3ccccc3OC)c(C)c2c1 | > 35 µM (inactive)
84 | CCCC(=O)NC(c1ccc(C(C)C)cc1)c1ccc2cccnc2c1O (centres undefined) | 2.1 µM
85 | O=C(COC(=O)c1cccc(S(=O)(=O)N2CCOCC2)c1)Nc1ncc(C(F)(F)F)cc1Cl | > 35 µM (inactive)
86 | COc1ccc2c(c1)c(C(=O)CN1CCc3ccccc3C1)c(C)n2C | > 35 µM (inactive)
87 | CCOc1ccccc1CN1CCN(S(C)(=O)=O)CC1 | > 35 µM (inactive)
88 | CCn1c(C)nc2cc(C(=O)N/N=C/c3cccc(O)c3O)ccc21 | 24.6 µM
89 | Cn1ncc(Cl)c1C(=O)Nc1nc2ccc(Cl)cc2s1 | > 35 µM (inactive)
90 | Cn1c(=O)cc(C(=O)N/N=C/c2ccc(F)cc2)[nH]c1=O | > 35 µM (inactive)
91 | COc1ccc2cc3cc(C(=O)N4CCN(c5ccccn5)CC4)oc3nc2c1 | > 35 µM (inactive)
92 | COc1nccc(C(F)(F)F)c1C(=O)NC(=O)Nc1ccccc1 | > 35 µM (inactive)
93 | Oc1c(N=Nc2ccccn2)ccc2ccccc12 | 3.98 µM
94 | CCCC(=O)NC(c1ccccc1)c1ccc2cccnc2c1O (centres undefined) | 4.71 µM
95 | COc1ccc(C(=O)CCNc2ccc(F)cc2)cc1 | > 35 µM (inactive)
96 | CC(C)(C)NC(=O)CN(Cc1ccc2c(c1)OCO2)C(=O)CNS(=O)(=O)c1ccc(F)cc1 | > 35 µM (inactive)
97 | COc1cc(C(=O)Oc2ccccc2/C=N/NC(=O)c2ccc(C)cc2)cc(OC)c1OC | 13.8 µM
98 | CC(=O)Nc1ccc(NC(=O)CCC(=O)OCC(=O)c2ccc(F)cc2)cc1 | > 35 µM (inactive)
99 | CN1CCN(C2Cc3ccc(F)cc3Sc3cc(F)c(Cl)cc32)CC1 (centres undefined) | > 35 µM (inactive)
100 | COc1cccc(/C=N/Nc2ncnc3c2ncn3Cc2ccccc2)c1O | 5.97 µM
101 | COc1ccc(C2CC(c3cccs3)=NN2C(=O)CSc2nc(=O)n3cc(C)ccc3n2)cc1 (centres undefined) | > 35 µM (inactive)
102 | COc1ccc(OC)c2sc(N3CCN(C(=O)c4ccc5ncsc5c4)CC3)nc12 | > 35 µM (inactive)
103 | COc1cccc(/C=N/Nc2nc3ccccc3[nH]2)c1O | 13.1 µM
104 | CCN1/C(=C/c2ccc3cc(C)ccc3[n+]2CC)Sc2ccccc21 | 13.1 µM

Source: PubChem BioAssay AID434951 (Broad Institute, 2010)
